Assay results from patent publication US20040122086A1, “Method for the production of anhydrous, pharmaceutical formulations of xanthogenates” (priority 2001, published 2004).

How the values were obtained:
[1] = test system: herpes simplex virus 1 (HSV 1), strain Angelotti; assay: Antiviral action of D609 against HSV 1 (cytopathogenic effect) in monkey renal cells; format: cell-based; details: for D609 concentration necessary to reduce the number of the infected cultures by 50%: monkey renal cells (Rita line)
Method: Monkey renal cells (Rita line) were infected in Linbro plates with 20 plaque-forming units of herpes simplex virus 1 (HSV 1), strain Angelotti. After 15 min, fresh cell culture medium (adjusted to pH 6.8 by reduction of the amount of sodium bicarbonate to 0.85 g/l and addition of 1 ml of 1 N HCl) which contained either 0, 5, 10, 15, 20, 25 or 30 μg/ml of D609 was added. All batches were carried out in quadruplicate. At the same time, cultures containing D609 and a fourfold concentration of cholesterol or containing cholesterol alone were treated. After 5 days, the monkey renal cells were lyzed in all untreated cultures by means of the cytopathogenic effect (cpe). After a further three days, the number of the cultures with cpe was determined for each D609 concentration. As can be inferred from FIG. 2, the number of cultures with cpe decreases with increasing D609 dose. The antiviral action of D609 was increased by cholesterol. While without cholesterol 25 μg/ml of D609 were necessary in order to reduce the number of the infected cultures by 50%, in the presence of cholesterol only 10 μg/ml of D609 were necessary. Cholesterol alone had no effect on the replication of HSV. Up to the highest concentration (120 μg/ml), all cultures were lyzed by HSV 1.

[2] = test system: hairless mice (strain Swiss CD3, Nu/Nu); details: mouse, in vivo
Method: (§1) D609 was mixed in a mortar together with the same proportion by weight of potassium salt of decanoic acid and two parts by weight of phosphatidylcholine or two or four parts by weight of cholesterol. After this, sufficient highly liquid paraffin oil and petroleum jelly (1 part by weight of paraffin oil, 4 parts by weight of petroleum jelly) were added such that in each case a concentration of 1.25; 2.5; 5.0; or 10% of D609 was achieved. In the same manner, D609-containing ointments without phosphatidylcholine or cholesterol were prepared.
(§2) 100 mg of ointment were applied twice in the neck region to 10 hairless mice each (strain Swiss CD3, Nu/Nu) at an interval of four hours. 12 hours after the last application, the degree of irritation was read off. The irritation was assessed according to the following scheme: slight erythema 0.5; severe erythema 1.0; ulceration 2.0.

herpes simplex virus 1 = assay: Antiviral use of D609 ointment in animal experiments (background); format: in vivo
[3] = Tolerability of D609 / xanthates in ointments (background); details: ointment
[4] = test system: hairless mice (strain Swiss CD3, Nu/Nu); assay: Irritating action of D609 ointments on hairless mice; details: for number of animals with slight erythema: 10 mice per group
Method: as §1, §2

[5] = Stability of D609 in aqueous solution (pH increase as measure of decomposition); format: physicochemical; details: 1 mg/ml D609 in distilled water, 37° C.
Method: D609 was dissolved in distilled water in a concentration of 1 mg/ml. 100 ml of this solution in each case were filled into a 200 ml Erlenmeyer flask. One of two solutions was treated with 1 g of cholesterol. Both solutions were incubated at 37° C. The pH of the solutions was determined at regular intervals. D609 decomposes in the presence of water to give tricyclodecanol, carbon disulfide and KOH. The pH of the solution increases with the formation of KOH. The increase in the pH is therefore a measure of the decomposition of D609.

[6] = ointments with 4 parts by weight of cholesterol, 10% D609
[7] = ointments with two parts by weight of cholesterol (plus same weight of potassium salt of decanoic acid)

SMILES	effect on the replication of HSV ([1]; cholesterol alone, up to the highest concentration (120 μg/ml), all cultures were lyzed)	tolerability [2]	concentration needed in an ointment for effective antiviral use (herpes simplex virus 1)	maximum tolerable concentration in ointments [3] [%]	D609 concentration necessary to reduce the number of the infected cultures by 50% ([1]; in the presence of a fourfold concentration of cholesterol, pH 6.8) [µg/mL]	factor by which antiviral action of D609 is improved by cholesterol ([1]; pH 6.8, with versus without cholesterol)	D609 concentration necessary to reduce the number of the infected cultures by 50% ([1]; without cholesterol, pH 6.8, cpe read after 8 days) [µg/mL]	degree of irritation ([4]; 2.5% D609 in pure petroleum jelly ointment without phosphatidylcholine or cholesterol, 100 mg applied twice, read 12 hours after last application)	degree of irritation ([4]; 5% D609 in pure petroleum jelly ointment without phosphatidylcholine or cholesterol, 100 mg applied twice, read 12 hours after last application)	number of animals with slight erythema ([4]; ointments containing four parts by weight of phosphatidylcholine, 5% D609)	number of animals with slight erythema ([4]; ointments containing four parts by weight of phosphatidylcholine, 10% D609)	degree of irritation [4, 6]	number of animals with slight erythema [4, 6]	D609 concentration at which a significant irritation occurred [4, 7] [%]	degree of irritation [4, 7]	pH increase and thus decomposition ([5]; 100 ml treated with 1 g of cholesterol, after 72 hours)	time within which marked decomposition is seen ([5]; without cholesterol) [h]
CC(C)CCC[C@@H](C)[C@H]1CC[C@H]2[C@@H]3CC=C4C[C@@H](O)CC[C@]4(C)[C@H]3CC[C@]12C [Cholesterol, cholesterol]	no effect																
S=C(S)OC1CC2CC1C1CCCC21 (centres unmarked) [D609, tricyclodecan-9-yl xanthate]		marked improvement in the tolerability	at least 2.5%	1	10	> 2.5	25	marked irritation	very strongly pronounced	one	five	almost free of irritant action	one	10	marked decrease in the symptoms	only a small pH increase	≤ 6
